This is an account of results in ChEMBL document CHEMBL1121757, “Alpha-adrenergic agents. 1. Direct-acting alpha 1 agonists related to methoxamine” (J Med Chem, 1981).

Bounds are passed on as bounds.

The species named for assay [1] is Oryctolagus cuniculus. Nature of the assay: Phentolamine dissociation constant was evaluated in rabbit ear artery. It is filed as functional.
In assay [2] the target is T1, Alpha-1A adrenergic receptor (Homo sapiens, UniProt P35348).
T1 sequence (P35348 whole entry): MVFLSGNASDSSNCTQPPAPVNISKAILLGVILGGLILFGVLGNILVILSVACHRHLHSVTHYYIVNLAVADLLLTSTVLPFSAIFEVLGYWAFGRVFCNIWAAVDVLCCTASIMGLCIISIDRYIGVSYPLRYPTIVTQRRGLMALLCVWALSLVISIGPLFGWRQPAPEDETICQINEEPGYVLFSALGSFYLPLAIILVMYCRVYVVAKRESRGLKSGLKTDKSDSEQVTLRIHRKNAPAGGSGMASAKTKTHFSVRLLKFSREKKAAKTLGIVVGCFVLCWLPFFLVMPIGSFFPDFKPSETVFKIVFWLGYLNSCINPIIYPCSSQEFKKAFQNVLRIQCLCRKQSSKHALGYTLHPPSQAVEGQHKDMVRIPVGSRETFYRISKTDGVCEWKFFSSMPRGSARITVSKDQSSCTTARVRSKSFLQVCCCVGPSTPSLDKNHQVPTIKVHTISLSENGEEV
Nature of the assay: Alpha-1 adrenergic receptor agonist activity in rabbit ear artery. It is filed as functional, tissue-based, Oryctolagus cuniculus. As to conditions: target entry is the homologue from another species.

In assay [1], `COc1ccc(OC)c2c1CC1C2[C@@H]1N` (some centres undefined) yielded a Kb of 8.4 nM. In addition, the EC50 in assay [2] is 340 nM.
In assay [2], `COc1ccc(OC)c2c1CC(N)C2` came in with an EC50 of 30000 nM.
For `COc1ccc(OC)c(C(O)C(C)N)c1` (centres undefined) [METHOXAMINE], the Kb in assay [1] was 9.8 nM. Besides, the EC50 in assay [2] worked out at 720 nM.
For the compound `COc1ccc(OC)c2c1CC[C@H]1NCCCC21` (some centres undefined), the Kb in assay [1] amounted to 11 nM. Further, the EC50 in assay [2] was found to be 170 nM.
For `COc1ccc(OC)c2c1CCCC(N)C2` (centres undefined) the same measures were 11 nM and 5300 nM.
For the compound `COc1ccc(OC)c2c1CCNC2`, the EC50 in assay [2] was greater than 30000 nM.
Still for that read-out and setting: under `COc1ccc(OC)c2c1C1CCC2[C@@H](N)C1` (some centres undefined) stands 30000 nM; under `COc1ccc(OC)c2c1C1CCC2[C@H](N)C1` (some centres undefined), 30000 nM.
In assay [1], `COc1ccc(OC)c2c1CCC(N)C2` (centres undefined) gave a Kb of 6 nM. Besides, in assay [2], a half-maximal response (EC50) required 120 nM.
Consider `COc1ccc(OC)c(CCN)c1`, for which the Kb in assay [1] came to 54 nM. In assay [2], this compound registered an EC50 of 11000 nM.
In turn, `COc1ccc(OC)c2c1CC[C@@H]1NCCCC21` (some centres undefined) registered a Kb in assay [1] of 14.7 nM. Moreover, the EC50 in assay [2] was found to be 200 nM.
Take `NC1CCc2ccccc2C1` (centres undefined): in assay [2], the EC50 was greater than 30000 nM.
